Assay results: US12390437B2, “Itaconic acid derivatives and uses thereof intreating an inflammatory disease or a disease associated with an undesirable immune response” (Sitryx Therapeutics Limited, priority 2019, dated 2025)

system: NQO1; experiment: NQO1 enzyme activation assay as a readout of NRF2 activation in THP-1 cells; assay type: cell-based; details: Homo sapiens, THP-1; percentage activation at top concentration, normalised to DMF (100%) and vehicle controls
Method: NQO1 Enzyme Activation Assay as a Readout of NRF2 Activation in THP-1 Cellular Background
NAD(P)H dehydrogenase [quinone] […] Induction of this gene is concomitant with the inhibition of proinflammatory cytokine transcription and suppression of the inflammatory response (Kobayashi E. H. et al., 2016). The NQO1 enzyme activation activities of compounds of formula (IW-1) were determined using a cellular based NQO1 activation assay (Abcam). The NQO1 activation assay was run in differentiated THP-1 cells (a human monocyte-like cell line) as described below. All reagents described are from Sigma-Aldrich unless specified otherwise. Compounds were prepared as 10 mM DMSO stocks.
THP-1 cells were expanded as a suspension up to 80% confluence in appropriate growth medium. Cells were harvested, suspended, treated with phorbol 12-myristate 13-acetate (PMA) and plated according to the cell density required for each plate format over a 72 hr period (37° C./5% CO2).
Following 72 hrs of THP-1 cell incubation, cellular medium was removed and replaced with fresh media. Working concentrations of compounds were prepared and pre-incubated for 30 minutes (37° C./5% CO2). Compound treatment was then applied to the PMA treated THP-1 cell plate followed by LPS treatment. A ‘low’ (DMSO vehicle only) control and ‘high’ (designated concentration of dimethyl fumarate) was applied to each plate at the point of compound treatment. Cells were subsequently incubated for a 48 hr period (37° C./5% C02) after which all NQO1 assay reagents were prepared according to the manufacturer's instructions. NQO1 extraction buffer was applied to PBS washed THP-1 cells and incubated on ice for 15 minutes to prepare THP-1 lysates for the NQO1 activity assay. THP-1 lysates were diluted 1:5 with PBS and treated with a 1:1 volume of kit prepared NQO1 Reaction Buffer. Absorbance was subsequently measured kinetically on an appropriate reader over a 6 minute period.
For activation determination, the fold change in response per well was determined by first calculating the average NQO1 activation data for the vehicle control and then dividing the individual well response by the averaged NQO1 response for the vehicle control as shown below: Fold change=(Sample value)/MeanMin Where ‘Min’=vehicle control only
The relative 50% activation concentration (EC50) was determined from the resulting fold change response curve. The maximum efficacy (Emax) was reported as the percentage activation calculated at the top concentration of compound used in the titration applied. If a full curve was unattainable preventing a correct curve fit, the Emax value was extrapolated using existing curve data. All percentage activation data were normalised to the DMF and vehicle controls, meaning the Emax represents the percentage […] achieved by a compound at a particular concentration relative to that achieved by DMF (set as the ‘High’ control and therefore representative of 100% activation).

| SMILES | Emax [%] |
| --- | --- |
| C=C(CC(=O)OCCCCCC)C(=O)OCCC#N [Example 11, 1-(2-cyanoethyl) 4-hexyl 2-methylenesuccinate] | 124 |
| C=C(CC(=O)OC)C(=O)OCCS(C)(=O)=O [Example 12, 4-methyl 1-(2-(methylsulfonyl)ethyl) 2-methylenesuccinate] | 88 |
| C=C(CC(=O)OCCCCCCCC)C(=O)OCCOC(F)(F)F [Example 13, 4-octyl 1-(2-(trifluoromethoxy)ethyl) 2-methylenesuccinate] | 45 |
| C=C(CC(=O)OCCCCCCCC)C(=O)OCCS(=O)(=O)N(C)C [Example 16, 1-(2-(N,N-dimethylsulfamoyl)ethyl) 4-octyl 2-methylenesuccinate] | 108 |
| C=C(CC(=O)OCCCCCCCC)C(=O)OCCN(C)C [Example 17, 1-(2-(dimethylamino)ethyl) 4-octyl 2-methylenesuccinate] | 68 |

same assay, conditions: Homo sapiens; differentiated THP-1 cells, LPS, 48 hr

| SMILES | EC50 [µM] |
| --- | --- |
| C=C(CC(=O)OC)C(=O)OCCS(C)(=O)=O [Example 12, 4-methyl 1-(2-(methylsulfonyl)ethyl) 2-methylenesuccinate] | 22.7 |
| C=C(CC(=O)OCCCCCCCC)C(=O)OCCS(=O)(=O)N(C)C [Example 16, 1-(2-(N,N-dimethylsulfamoyl)ethyl) 4-octyl 2-methylenesuccinate] | 19.8 |

These reach a lower EC50. Values come first.

| EC50 [µM] | SMILES |
| --- | --- |
| 10.4 | C=C(CC(=O)OCCCCCC)C(=O)OCCC#N [Example 11, 1-(2-cyanoethyl) 4-hexyl 2-methylenesuccinate] |
| 2.8 | C=C(CC(=O)OCCCCCCCC)C(=O)OCCOC(F)(F)F [Example 13, 4-octyl 1-(2-(trifluoromethoxy)ethyl) 2-methylenesuccinate] |
| 2.6 | C=C(CC(=O)OCCCCCCCC)C(=O)OCCN(C)C [Example 17, 1-(2-(dimethylamino)ethyl) 4-octyl 2-methylenesuccinate] |

system: IL-1β cytokine output from THP-1s; experiment: THP-1 AlphaLISA IL-1β cytokine assay; assay type: cell-based, human; details: Homo sapiens, THP-1, PMA-differentiated THP-1 cells, LPS 24 hr then Nigericin 1 hour; read-out: IL-1β (IC50)
Method in brief: (§1)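 Cells are differentiated with PMA over 72 h, switched to 1% FBS medium and treated with compound for 30 min before LPS stimulation for 24 h. Nigericin is added for a final hour, and secreted cytokine is measured by AlphaLISA, with IC50 fitted from percent inhibition.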

| SMILES | IC50 [nM] |
| --- | --- |
| C=C(CC(=O)OC)C(=O)OCCS(C)(=O)=O [Example 12, 4-methyl 1-(2-(methylsulfonyl)ethyl) 2-methylenesuccinate] | 28200 |
| C=C(CC(=O)OCCCCCCCC)C(=O)OCCS(=O)(=O)N(C)C [Example 16, 1-(2-(N,N-dimethylsulfamoyl)ethyl) 4-octyl 2-methylenesuccinate] | 1700 |

Results, then the compound that gave them:

| IC50 [nM] | SMILES |
| --- | --- |
| 3700 | C=C(CC(=O)OCCCCCC)C(=O)OCCC#N [Example 11, 1-(2-cyanoethyl) 4-hexyl 2-methylenesuccinate] |
| 1500 | C=C(CC(=O)OCCCCCCCC)C(=O)OCCN(C)C [Example 17, 1-(2-(dimethylamino)ethyl) 4-octyl 2-methylenesuccinate] |

system: IL-6 cytokine output from THP-1s; experiment: THP-1 AlphaLISA IL-6 cytokine assay; assay type: cell-based, human; details: Homo sapiens; PMA-differentiated THP-1 cells, LPS 24 hr then Nigericin 1 hour
Method in brief: as §1

| IC50 [nM] | SMILES |
| --- | --- |
| 11300 | C=C(CC(=O)OC)C(=O)OCCS(C)(=O)=O [Example 12, 4-methyl 1-(2-(methylsulfonyl)ethyl) 2-methylenesuccinate] |
| 1100 | C=C(CC(=O)OCCCCCCCC)C(=O)OCCS(=O)(=O)N(C)C [Example 16, 1-(2-(N,N-dimethylsulfamoyl)ethyl) 4-octyl 2-methylenesuccinate] |
| 1400 | C=C(CC(=O)OCCCCCCCC)C(=O)OCCN(C)C [Example 17, 1-(2-(dimethylamino)ethyl) 4-octyl 2-methylenesuccinate] |
